This is an account of results in patent publication US7271195B2, “Carbonyl compounds as inhibitors of histone deacetylase for the treatment of disease” (Kalypsys, Inc., priority 2003, dated 2007).

By IC50 is commonly meant the concentration that inhibits the measured activity by half.

Where two headings read alike, the source gives them in different places.

Assay [1] has as its system HDAC in cells (cellular histone acetylation levels). As to the kind of experiment: Cellular histone hyperacetylation assay (cytoblot), cellular HDAC inhibition. In kind it is cell-based. As to conditions: for IC50 / Cellular IC50: "active" = inhibitory activity but cellular IC50 could not be determined; for Emax / % Max. Inhibition (cellular): maximum inhibition; for Emax: read-out: % Max. Inhibition (cellular). The method, then:
Cellular Histone Hyperacetylation Assays:
These two secondary assays evaluates a compound's ability to inhibit HDAC in cells by measuring cellular histone acetylation levels. The cytoblot facilitates quantitative EC50 information for cellular HDAC inhibition. Transformed cell lines (e.g. HeLa, A549, MCF-7) are cultured under standard media and culture conditions prior to plating.
Cells (approx. 2,500/well) are allowed to adhere 10-24 hours to wells of a 384-well Greiner PS assay plate in media containing 1-5% serum. Cells are treated with appropriate compound and specific concentrations for 0 to 24 hours. Cells are washed once with PBS (60 ul) and then fixed (95% ethanol, 5% acetic acid or 2% PFA) for 1 minute at RT (30 ul). Cells are blocked with 1% BSA for 1 hour and washed and stained with antibody (e.g. anti-Acetylated Histone H3, Upstate Biotechnology), followed by washing and incubation with an appropriate secondary antibody conjugated to HRP or fluorophore. For luminescence assays, signal is generated using Luminol substrate (Santa Cruz Biotechnology) and detected using an Aquest plate reader (Molecular Devices).

The test system of assay [2] is T1, HDAC.
T1 construct: in vitro IC50; other: in vitro HDAC enzyme source
As to the kind of experiment: In vitro HDAC-inhibition assay (Fluor de Lys fluorescent substrate). As to conditions: for IC50: in vitro HDAC enzyme source; for % Max Inhibition (in vitro): maximum inhibition. In kind it is biochemical. The method, then: In vitro HDAC-inhibition Assay:
This assay measures a compound's ability to inhibit acetyl-lysine deacetylation in vitro and was used as both a primary screening method as well as for IC50 determinations of confirmed inhibitors. The assay is performed in vitro using an HDAC enzyme source (e.g. partially purified nuclear extract or immunopurified HDAC complexes) and a proprietary fluorescent substrate/developer system (HDAC Quantizyme Fluor de Lys Fluorescent Activity Assay, BIOMOL). The assay is run in 1,536-well Greiner white-bottom plates using the following volumes and order of addition:
Step 1: Enzyme (2.5 ul) source added to plate (from refrigerated container) • Step 2: Compounds (50 nl) added with pin transfer device • Step 3: Fluor de Lys (2.5 ul) substrate added, incubate at RT, 30 minutes • Step 4: Developer (5 ul) solution is added (containing TSA), to stop reaction • Step 5: Plate Reader—data collection
The deacetylated fluorophore is excited with 360 nm light and the emitted light (460 nm) is detected on an automated fluorometric plate reader (Aquest, Molecular Devices).

Assay [3] concerns HDAC. As to conditions: published value for positive control; read-out: published in vitro IC50; cited from earlier work.

`O=C(CSC1=NCCS1)c1ccc2c(c1)OCCO2` [Compound 19]: in assay [1], the IC50 lay within 1000 to 10000 nM and the Emax is over 50%. For the same compound, in the assay on HDAC [2], the IC50 is over 10000 nM and the “% Max Inhibition (in vitro)” value is over 75%.
In the case of `COc1cccc(C(=O)CSC2=NCCS2)c1` [Compound 20], the “Cellular IC50” value in assay [1] is “active”. Moreover, in the assay with HDAC [2], the IC50 is over 10000 nM and the “% Max Inhibition (in vitro)” value was over 75%.
On to `CC(=O)Nc1ccc(C(=O)CSC2=NCCS2)cc1` [Compound 21], for which, in assay [1], the concentration for half-maximal inhibition (IC50) lay in the range of 1000 to 10000 nM and the Emax is over 75%. In the assay on HDAC [2], the IC50 is over 10000 nM and the “% Max Inhibition (in vitro)” value is over 75%.
For `CCN(CC)c1ccc(C(=O)CSC2=NCCS2)cc1` [Compound 22], in that order: 1000 to 10000 nM, under 50%, over 10000 nM and under 50%.
On to `COc1ccc(C(=O)CSC2=NCCS2)cc1` [Compound 23], for which the “Cellular IC50” value in assay [1] is recorded as “active”. In the assay on HDAC [2], the IC50 was over 10000 nM and the “% Max Inhibition (in vitro)” value is recorded as over 50%.
`O=C(CSC1=NCCS1)c1ccc(N2CCCC2)cc1` [Compound 24]: in assay [1], the “Cellular IC50” value is “active”. In the assay on HDAC [2], the IC50 was over 10000 nM and the “% Max Inhibition (in vitro)” value was over 50%.
For `COc1ccc(C(=O)CSC2=NCCS2)cc1OC` [Compound 25], in that order: “active”, over 10000 nM and under 50%.
Turning to `COc1ccc(S(=O)(=O)Nc2ccc(C(=O)CSC3=NCCS3)cc2)cc1OC` [Compound 26, N-{4-[2-(4,5-Dihydro-thiazol-2-ylsulfanyl)-acetyl]-phenyl}-3,4-dimethoxy-benzenesulfonamide], in assay [1], the IC50 was under 1000 nM and the Emax was over 75%. Further, in the assay with HDAC [2], the IC50 was 1000 to 10000 nM and the “% Max Inhibition (in vitro)” value is given as over 75%.
In the same order, the values of `O=C(CSC1=NCCS1)c1ccc(NS(=O)(=O)c2ccc(OC(F)(F)F)cc2)cc1` [Compound 27, N-{4-[2-(4,5-Dihydro-thiazol-2-ylsulfanyl)-acetyl]-phenyl}-4-trifluoromethoxy-benzenesulfonamide] are 1000 to 10000 nM, over 75%, 1000 to 10000 nM and over 75%.
In the same order, the values of `CC(=O)Nc1ccc(S(=O)(=O)Nc2ccc(C(=O)CSC3=NCCS3)cc2)cc1` [Compound 29, N-(4-{4-[2(4,5-Dihydro-thiazol-2-ylsulfanyl)-acetyl]-phenylsulfamoyl}-phenyl)-acetamide] are 1000 to 10000 nM, over 75%, 1000 to 10000 nM and over 75%.
For `COc1ccc(S(=O)(=O)Nc2cccc(C(=O)CSC3=NCCS3)c2)cc1OC` [Compound 30], in that order: 1000 to 10000 nM, over 75%, 1000 to 10000 nM and over 75%.
`O=C(CSC1=NCCS1)c1cccc(NS(=O)(=O)c2ccc(OC(F)(F)F)cc2)c1` [Compound 31]: in assay [1], the IC50 was in the range of 1000 to 10000 nM and the Emax was over 75%. In addition, in the assay with HDAC [2], the IC50 lay within 1000 to 10000 nM and the “% Max Inhibition (in vitro)” value was over 75%.
Regarding `O=C1CSC(SCC(=O)c2ccccc2)=N1` [Compound 32], in assay [1], the IC50 was over 10000 nM and the Emax was over 50%. In addition, in the assay with HDAC [2], the 50% inhibitory concentration (IC50) is under 1000 nM and the “% Max Inhibition (in vitro)” value was over 75%.
`O=C1CSC(SCC(=O)c2ccc(Br)cc2)=N1` [Compound 33]: in assay [1], the IC50 is over 10000 nM and the Emax was over 75%. In the assay with HDAC [2], the IC50 was under 1000 nM and the “% Max Inhibition (in vitro)” value is listed as over 75%.
In the same order, the values of `O=C1CSC(SCC(=O)c2ccc3c(c2)OCCO3)=N1` [Compound 34, 2-[2-(2,3-Dihydro-benzo[1,4]dioxin-6-yl)-2-oxo-ethylsulfanyl]-thiazol-4-one] are 1000 to 10000 nM, over 75%, under 1000 nM and over 75%.
In the case of `O=C(CS)c1ccc(Br)cc1` [Compound 41, 1-(4-Bromo-phenyl)-2-mercapto-ethanone], in assay [1], the “Cellular IC50” value is recorded as “active” and the Emax was over 75%. Moreover, in the assay with HDAC [2], the IC50 is under 1000 nM and the “% Max Inhibition (in vitro)” value is recorded as over 75%.
Regarding `COc1cccc(C(=O)CS)c1` [Compound 42], in assay [1], the IC50 is over 10000 nM and the Emax is over 75%. Moreover, in the assay with HDAC [2], the IC50 is 1000 to 10000 nM and the “% Max Inhibition (in vitro)” value is listed as over 75%.
For `O=C(CSSCC(=O)c1ccc(NS(=O)(=O)c2ccc(OC(F)(F)F)cc2)cc1)c1ccc(NS(=O)(=O)c2ccc(OC(F)(F)F)cc2)cc1` [Compound 47, Thioacetic acid S-{2-oxo-2-[4-(4-trifluoromethoxy-benzenesulfonylamino)-phenyl]-ethyl}disulfide], in that order: under 1000 nM, over 75%, under 1000 nM and over 75%.
For `CC(=O)SCC(=O)c1ccc(NS(=O)(=O)c2ccc(OC(F)(F)F)cc2)cc1` [Compound 48, Thioacetic acid S-{2-oxo-2-[4-(4-trifluoromethoxy-benzenesulfonylamino)-phenyl]-ethyl}ester], in that order: under 1000 nM, over 75%, under 1000 nM and over 75%.
In the case of `Nc1ccccc1NC(=O)c1ccc(CNC(=O)OCc2cccnc2)cc1` [MS-275, reference compound], in assay [1], the IC50 lay within 1000 to 10000 nM and the “% Max. Inhibition (cellular)” value was over 75%. Moreover, in the assay with HDAC [2], the IC50 was over 10000 nM and the “% Max Inhibition (in vitro)” value is given as over 50%.
For the compound `CC(/C=C/C(=O)NO)=C\[C@@H](C)C(=O)c1ccc(N(C)C)cc1` [TSA, reference compound], in assay [1], the IC50 was under 1000 nM and the “% Max. Inhibition (cellular)” value was found to be 100%. Besides, in the assay with HDAC [2], the IC50 was under 1000 nM and the “% Max Inhibition (in vitro)” value worked out at 100%. For the same compound, the IC50 in the assay on HDAC [3] is 3 to 6 nM.
